Laboratory results from PMC10831071, “Reaction hijacking inhibition of Plasmodium falciparum asparagine tRNA synthetase” (Nature Communications, 2024).
“And” between values parts separate entries of the source, which are not always exact repeats. Equal entries are not always repeated. Where two headings read alike, the source gives them in different places.

Key:
Assay in all cases: microbe, parasite or virus in culture
Format in all cases: cell-based, Plasmodium falciparum
[1] = test system: PfAsnRS cKD P. falciparum line; settings: for growth after 72 h exposure, normalised to no drug: PfAsnRS K/D, replicates
Excerpt: (§1) Conditional knockdown (cKD) P. falciparum lines were generated for the cytosolic AsnRS (PF3D7_0211800), cytosolic AlaRS (PF3D7_1367700), cytosolic GlyRS (GlyRS; PF3D7_1420400), PfNT4 (PF3D7_0103200), P. falciparum glutamate dehydrogenase 3 (GDH3; PF3D7_0802000), and P. falciparum carbonic anhydrase (CA, PF3D7_1140000) by fusing the coding sequences and non-coding RNA aptamer sequences in the 3’-UTR, permitting translation regulation using the TetR-DOZI system[59],[60]. Gene editing was achieved by CRISPR/SpCas9 using the linear pSN054 vector that contains cloning sites for the left homology region (LHR) and the right homology region (RHR) as well a target-specific guide RNA under control of the T7 promoter. Cloning into the pSN054 donor vector was carried out following described procedures[59],[60]. The vector includes V5-2xHA epitope tags, a 10x tandem array of TetR aptamers upstream of an Hsp86 3’UTR, and a multicistronic cassette for expression of TetR-DOZI (translation regulation), blasticidin S-deaminase (selection marker) and a Renilla luciferase (RLuc) reporter. All primer and synthetic fragment sequences that were generated using the BioXP™ system and IDT gBlocks™ are included in Supplementary Table 9. The final constructs were sequence-verified and further confirmed by restriction digests.
(§2) Transfection into Cas9- and T7 RNA polymerase-expressing NF54 parasites was carried out by pre-loading red blood cells (RBCs) with the donor vector[61]. […] Cultures were monitored by Giemsa smears and RLuc measurements.
(§3) DMSO- and dihydroartemisinin-treatment (0.5 µM) served as reference controls.

[2] = test system: PfGDH3 cKD P. falciparum line; settings: for Growth: PfGDH K/D
Excerpt: as §1, §2, §3

[3] = test system: PfAlaRS cKD P. falciparum line; settings: for Growth: PfAlaRS K/D; for IC50: PfAlaRS line, individual repeats
Excerpt: as §1, §2, §3

[4] = test system: PfNT4 cKD P. falciparum line; settings: PfNT4 K/D, 500 nM aTc, replicates
Excerpt: as §1, §2, §3

## Nc1ncnc2cc(-c3cccc(S(N)(=O)=O)c3)sc12 [OSM-S-106]
[1]; 1 nM aTc, 3.125 nM
  growth after 72 h exposure, normalised to no drug: 100 (2×) and 98.2196
[1]; 1 nM aTc, 6.25 nM
  growth after 72 h exposure, normalised to no drug: 101.298 and 95.7154 and 83.7406
[1]; 1 nM aTc, 12.5 nM
  growth after 72 h exposure, normalised to no drug: 113.486 and 107.859 and 50.8034
[1]; 1 nM aTc, 25 nM
  growth after 72 h exposure, normalised to no drug: 72.3501 and 87.3666 and 36.7561
[1]; 1 nM aTc, 50 nM
  growth after 72 h exposure, normalised to no drug: 8.286 and 14.406 and 55.7128
[1]; 1 nM aTc, 100 nM
  growth after 72 h exposure, normalised to no drug: 12.9721 and 14.646 and 33.4758
[1]; 1 nM aTc, 200 nM
  growth after 72 h exposure, normalised to no drug: 2.187 and 4.184 and 3.619
[1]; 1 nM aTc, 400 nM
  growth after 72 h exposure, normalised to no drug: 0.0118 and 0.3256 and 1.407
[1]; 1 nM aTc, 800 nM
  growth after 72 h exposure, normalised to no drug: 0 (2×) and 0.3116
[1]; 1 nM aTc, […]
  growth after 72 h exposure, normalised to no drug: 95.5045
[1]; 500 nM aTc, 3.125 nM
  growth after 72 h exposure, normalised to no drug: 100 (2×) and 130.484
[1]; 500 nM aTc, 6.25 nM
  growth after 72 h exposure, normalised to no drug: 102.095 and 95.7689 and 98.7064
[1]; 500 nM aTc, 12.5 nM
  growth after 72 h exposure, normalised to no drug: 106.159 and 101.462 and 104.967
[1]; 500 nM aTc, 25 nM
  growth after 72 h exposure, normalised to no drug: 108.223 and 97.6665 and 110.496
[1]; 500 nM aTc, 50 nM
  growth after 72 h exposure, normalised to no drug: 109.874 and 96.9998 and 112.12
[1]; 500 nM aTc, 100 nM
  growth after 72 h exposure, normalised to no drug: 74.5373 and 61.9971 and 57.4067
[1]; 500 nM aTc, 200 nM
  growth after 72 h exposure, normalised to no drug: 13.0647 and 13.1882 and 56.7167
[1]; 500 nM aTc, 400 nM
  growth after 72 h exposure, normalised to no drug: 1.083 and 1.38 and 11.7035
[1]; 500 nM aTc, 800 nM
  growth after 72 h exposure, normalised to no drug: 0 (2×) and 1.573
[1]; 500 nM aTc, […]
  growth after 72 h exposure, normalised to no drug: 123.179
[1]; PfAsnRS line, 500 nM aTc, individual repeats
  IC50: 116 nM and 175 nM
[1]; Plasmodium falciparum, PfAsnRS line, 500 nM aTc, individual repeats
  IC50: 123 nM
[1]; Plasmodium falciparum, read-out: Mean IC50 with 500 nM aTc, PfAsnRS line, 500 nM aTc
  IC50: 140 nM
[1]; Plasmodium falciparum, read-out: Mean IC50 with low (1 or […])/ no aTc, PfAsnRS knockdown, low aTc
  IC50: 26 nM
[2]; 3.125 nM OSM-S-106, 500 nM aTc
  Growth: 94.0541 and 124.457 and 123.311 and 110.909
[2]; 3.125 nM OSM-S-106, no aTc
  Growth: 87.3995 and 105.933 and 109.078 and 106.271
[2]; 6.25 nM OSM-S-106, 500 nM aTc
  Growth: 100.123 and 114.751 and 110.911 and 107.384
[2]; 6.25 nM OSM-S-106, no aTc
  Growth: 83.7383 and 126.64 and 124.278 and 107.945
[2]; 12.5 nM OSM-S-106, 500 nM aTc
  Growth: 87.2036 and 124.904 and 116.677 and 110.631
[2]; 12.5 nM OSM-S-106, no aTc
  Growth: 66.2785 and 97.9464 and 116.025 and 105.41
[2]; 200 nM OSM-S-106, 500 nM aTc
  Growth: 11.4175 and 15.1341 and 15.4371 and 10.7452
[2]; 200 nM OSM-S-106, no aTc
  Growth: 9.827 and 15.4022 and 15.1307 and 8.291
[2]; PfGDH3 line, 500 nM aTc, individual repeats
  IC50: 22.8 nM and 69.5 nM and 36.5 nM and 30.2 nM
[2]; Plasmodium falciparum, read-out: Mean IC50 with 500 nM aTc, PfGDH3 line, 500 nM aTc
  IC50: 40 nM
[2]; Plasmodium falciparum, read-out: Mean IC50 with low (1 or […])/ no aTc, PfGDH3 knockdown, no aTc
  IC50: 46 nM
[3]; 3.125 nM OSM-S-106, 500 nM aTc
  Growth: 106.745 and 98.2451 and 120.926
[3]; 6.25 nM OSM-S-106, 500 nM aTc
  Growth: 90.3733 and 84.6837 and 109.578
[3]; 12.5 nM OSM-S-106, 500 nM aTc
  Growth: 88.5694 and 88.7266 and 97.0041
[3]; 25 nM OSM-S-106, 500 nM aTc
  Growth: 83.1875 and 95.5017 and 98.3659
[3]; 50 nM OSM-S-106, 500 nM aTc
  Growth: 55.6885 and 91.3478 and 80.2088
[3]; 200 nM OSM-S-106, 500 nM aTc
  Growth: 76.3648
[3]; 200 nM OSM-S-106, […] aTc
  Growth: 67.5946
[3]; 1 nM, […] aTc or no aTc
  IC50: 46.2 nM
[3]; 500 nM aTc
  IC50: 99.7 nM
[3]; Plasmodium falciparum, 1 nM, […] aTc or no aTc
  IC50: 56.8 nM
[3]; Plasmodium falciparum, 500 nM aTc
  IC50: 78.4 nM
[4]; 0.488281 nM
  growth after 72 h exposure, normalised to no drug: 115.319 and 105.291 and 111.528
[4]; 0.976562 nM
  growth after 72 h exposure, normalised to no drug: 113.41 and 102.567 and 108.441
[4]; 1.95312 nM
  growth after 72 h exposure, normalised to no drug: 108.529 and 100.357 and 100.986
